Converted amounts (≈) assume the structure as drawn. Where a name gives a salt, the structure may show the parent alone. Read-outs that look alike come from different tables or passages of the source.
Tests used:
[1] = tested on: lymphocyte proliferation, cells from the thymus of normal BALB/c mice (PHA and IL-1); experiment: comitogen-induced thymocyte proliferation procedure (LAF); format: cell-based; conditions: ratio, thymocytes 72 hours with PHA and IL-1, rapamycin 1.0
Experimental: (§1) Immunosuppressive activity was evaluated in an in vitro standard pharmacological test procedure to measure lymphocyte proliferation (LAF) and in two in vivo standard pharmacological test procedures. The first in vivo procedure was a popliteal lymph node (PLN) test procedure which measured the effect of compounds of this invention on a mixed lymphocyte reaction and the second in vivo procedure evaluated the survival time of a pinch skin graft.
Briefly, cells from the thymus of normal BALB/c mice are cultured for 72 hours with PHA and IL-1 and pulsed with tritiated thymidine during the last six hours. […] Cells are harvested and incorporated; radioactivity is determined. inhibition of lymphoproliferation is assessed in percent change in counts per minute from non-drug treated controls. The results are expressed by the following ratio: [formula]

pinch skin graft = experiment: survival time of pinch skin graft; format: in vivo, mouse (male DBA/2 donors, male BALB/c recipients); conditions: intraperitoneally, mean graft survival time ± S.D.
Experimental: as §1
The second in vivo test procedure is designed to determine the survival time of pinch skin graft from male DBA/2 donors transplanted to male BALB/c recipients. The method is adapted from Billingham R. E. and Medawar P. B., J. Exp. Biol. 28:385-402, (1951). Briefly, a pinch skin graft from the donor is grafted on the dorsum of the recipient as a homograft, and an autograft is used as control in the same region. […] Untreated recipients serve as rejection control. The graft is monitored daily and observations are recorded until the graft becomes dry and forms a blackened scab. This is considered as the rejection day. The mean graft survival time (number of days±S.D.) of the drug treatment group is compared with the control group.

Candida albicans 3669 = experiment: antifungal plate test procedure; format: cell-based
Experimental: (§2) The following represents the typical procedure used. Compound to be tested was placed on sterile dried 1/4" plate disks, and allowed to dry. Agar plates were seeded with fungi and allowed to solidify. The impregnated disks were placed on the seeded Agar surface and incubated for the time required for the particular culture. Results are expressed in MIC (μg/ml) to inhibit growth.

[2] = tested on: Candida albicans ATCC 10231; experiment: antifungal plate test procedure; format: cell-based
Experimental: as §2

[3] = tested on: Candida albicans ATCC 38246; experiment: antifungal plate test procedure; format: cell-based
Experimental: as §2

[4] = tested on: Candida albicans ATCC 38247; experiment: antifungal plate test procedure; format: cell-based
Experimental: as §2

[5] = tested on: Candida albicans ATCC 38248; experiment: antifungal plate test procedure; format: cell-based
Experimental: as §2

[6] = Candida albicans, 3669, strain 3669, read-out: MIC
[7] = Candida albicans, ATCC10231, ATCC 10231, read-out: MIC
[8] = Candida albicans, ATCC38246, ATCC 38246, read-out: MIC
[9] = Candida albicans, ATCC38247, ATCC 38247, read-out: MIC
[10] = Candida albicans, ATCC38248, ATCC 38248, read-out: MIC

SMILES | LAF (ratio) [1] | Skin Graft (days + SD), mean graft survival time (pinch skin graft) | MIC (Candida albicans 3669; [6]) | MIC [2, 7] | MIC [3, 8] | MIC [4, 9] | MIC [5, 10] | other results
CO[C@H]1C[C@@H]2CC[C@@H](C)[C@@](OC(=O)CCC(=O)OCc3ccccc3)(O2)C(=O)C(=O)N2CCCC[C@H]2C(=O)O[C@H]([C@H](C)C[C@@H]2CC[C@@H](OC(=O)CCC(=O)OCc3ccccc3)[C@H](OC)C2)CC(=O)[C@H](C)/C=C(\C)[C@@H](OC(=O)CCC(=O)OCc2ccccc2)[C@@H](OC)C(=O)[C@H](C)C[C@H](C)/C=C/C=C/C=C/1C [Example 1, Rapamycin-14,31,42-tris(monobenzylsuccinate)] | 0.37 | 8.2 ± 1.2 days | > 0.4 µg/mL | > 0.4 µg/mL | > 0.4 µg/mL | > 0.4 µg/mL | > 0.4 µg/mL | –
CO[C@H]1C[C@@H]2CC[C@@H](C)[C@@](O)(O2)C(=O)C(=O)N2CCCC[C@H]2C(=O)O[C@H]([C@H](C)C[C@@H]2CC[C@@H](OC(=O)CCCC(=O)O)[C@H](OC)C2)CC(=O)[C@H](C)/C=C(\C)[C@@H](OC(=O)CCCC(=O)O)[C@@H](OC)C(=O)[C@H](C)C[C@H](C)/C=C/C=C/C=C/1C [Example 4, Rapamycin-31,42-bishemiglutarate] | 0.56 | 10.2 ± 1.7 days | 0.4 µg/mL (≈ 0.35 µM) | > 0.4 µg/mL | 0.2 µg/mL (≈ 0.175 µM) | > 0.4 µg/mL | 0.2 µg/mL (≈ 0.175 µM) | –
CO[C@H]1C[C@@H]2CC[C@@H](C)[C@@](O)(O2)C(=O)C(=O)N2CCCC[C@H]2C(=O)O[C@H]([C@H](C)C[C@@H]2CC[C@@H](OC(=O)CCC(=O)OCc3ccccc3)[C@H](OC)C2)CC(=O)[C@H](C)/C=C(\C)[C@@H](OC(=O)CCC(=O)OCc2ccccc2)[C@@H](OC)C(=O)[C@H](C)C[C@H](C)/C=C/C=C/C=C/1C [Example 2, Rapamycin-31,42-bis(monobenzylsuccinate)] | 0.9 | 10.7 ± 1.2 days | 0.4 µg/mL (≈ 0.309 µM) | > 0.4 µg/mL | 0.4 µg/mL (≈ 0.309 µM) | > 0.4 µg/mL | 0.4 µg/mL (≈ 0.309 µM) | –
CO[C@H]1C[C@@H]2CC[C@@H](C)[C@@](O)(O2)C(=O)C(=O)N2CCCC[C@H]2C(=O)O[C@H]([C@H](C)C[C@@H]2CC[C@@H](OC(=O)CCCC(=O)O)[C@H](OC)C2)CC(=O)[C@H](C)/C=C(\C)[C@@H](OC(=O)CCCC(=O)O)[C@@H](OC)C(=O)[C@H](C)C[C@H](C)/C=C/C=C/C=C/1C [Example 6, Rapamycin-31,42-bishemiglutarate bistromethamine salt] | 0.01 | 8.0 ± 0.9 days | – | – | – | – | – | MIC (Candida albicans 3669; strain 3669): > 0.4 µg/mL; MIC ([2]; ATCC 10231): 0.4 µg/mL; MIC ([3]; ATCC 38246): > 0.4 µg/mL; MIC ([4]; ATCC 38247): 0.4 µg/mL; MIC ([5]; ATCC 38248): > 0.4 µg/mL
C=CCOC(=O)CCCC(=O)O[C@@H]1CC[C@@H](C[C@@H](C)[C@@H]2CC(=O)[C@H](C)/C=C(\C)[C@@H](O)[C@@H](OC)C(=O)[C@H](C)C[C@H](C)/C=C/C=C/C=C(\C)[C@@H](OC)C[C@@H]3CC[C@@H](C)[C@@](O)(O3)C(=O)C(=O)N3CCCC[C@H]3C(=O)O2)C[C@H]1OC [Example 14, Rapamycin-42-allylglutarate] | 3.42 | 11.0 ± 0.0 days | – | – | – | – | – | –
CO[C@H]1C[C@@H]2CC[C@@H](C)[C@@](O)(O2)C(=O)C(=O)N2CCCC[C@H]2C(=O)O[C@H]([C@H](C)C[C@@H]2CC[C@@H](OC(=O)COCC(=O)O)[C@H](OC)C2)CC(=O)[C@H](C)/C=C(\C)[C@@H](OC(=O)COCC(=O)O)[C@@H](OC)C(=O)[C@H](C)C[C@H](C)/C=C/C=C/C=C/1C [Example 9, Rapamycin-31,42-bishemi-3'-oxoglutarate disodium salt] | – | – | – | – | – | – | – | LAF (ratio) ([1]; disodium salt): 0.22; Skin Graft (days + SD), mean graft survival time (pinch skin graft; disodium salt): 10.2 ± 1.2 days; MIC (Candida albicans 3669; strain 3669): > 0.4 µg/mL; MIC ([2]; ATCC 10231, disodium salt): 0.2 µg/mL; MIC ([3]; ATCC 38246): > 0.4 µg/mL; MIC ([4]; ATCC 38247, disodium salt): 0.2 µg/mL; MIC ([5]; ATCC 38248, disodium salt): 0.4 µg/mL
CO[C@H]1C[C@@H]2CC[C@@H](C)[C@@](O)(O2)C(=O)C(=O)N2CCCC[C@H]2C(=O)O[C@H]([C@H](C)C[C@@H]2CC[C@@H](OC(=O)COCC(=O)O)[C@H](OC)C2)CC(=O)[C@H](C)/C=C(\C)[C@@H](OC(=O)COCC(=O)O)[C@@H](OC)C(=O)[C@H](C)C[C@H](C)/C=C/C=C/C=C/1C [Example 8] | positive ratio | – | > 0.4 µg/mL | – | > 0.4 µg/mL | 0.4 µg/mL (≈ 0.349 µM) | > 0.4 µg/mL | MIC ([2]; ATCC 10231): 0.4 µg/mL (≈ 0.349 µM)
CO[C@H]1C[C@@H]2CC[C@@H](C)[C@@](O)(O2)C(=O)C(=O)N2CCCC[C@H]2C(=O)O[C@H]([C@H](C)C[C@@H]2CC[C@@H](OC(=O)CCC(=O)O)[C@H](OC)C2)CC(=O)[C@H](C)/C=C(\C)[C@@H](OC(=O)CCC(=O)O)[C@@H](OC)C(=O)[C@H](C)C[C@H](C)/C=C/C=C/C=C/1C [Example 11, Rapamycin-31,42-bishemisuccinate] | – | 7.8 ± 1.7 days | > 0.4 µg/mL | > 0.4 µg/mL | > 0.4 µg/mL | > 0.4 µg/mL | > 0.4 µg/mL | –
CO[C@H]1C[C@@H]2CC[C@@H](C)[C@@](O)(O2)C(=O)C(=O)N2CCCC[C@H]2C(=O)O[C@H]([C@H](C)C[C@@H]2CC[C@@H](OC(=O)COCC(=O)O)[C@H](OC)C2)CC(=O)[C@H](C)/C=C(\C)[C@@H](OC(=O)COCC(=O)O)[C@@H](OC)C(=O)[C@H](C)C[C@H](C)/C=C/C=C/C=C/1C [Example 10, Rapamycin-31,42-bishemi-3'-oxoglutarate bistromethamine salt] | 0.18 | 10.8 ± 0.8 days | – | – | – | – | – | MIC (Candida albicans 3669; strain 3669): > 0.4 µg/mL; MIC ([2]; ATCC 10231): 0.1 µg/mL; MIC ([3]; ATCC 38246): > 0.4 µg/mL; MIC ([4]; ATCC 38247): 0.2 µg/mL; MIC ([5]; ATCC 38248): 0.4 µg/mL
C=CCOC(=O)CCCC(=O)O[C@@H]1/C(C)=C/[C@@H](C)C(=O)C[C@@H]([C@H](C)C[C@@H]2CC[C@@H](O)[C@H](OC)C2)OC(=O)[C@@H]2CCCCN2C(=O)C(=O)[C@]2(O)O[C@@H](CC[C@H]2C)C[C@H](OC)/C(C)=C/C=C/C=C/[C@@H](C)C[C@@H](C)C(=O)[C@@H]1OC [Example 15, Rapamycin-31-allylglutarate] | 0.40 | 9.8 ± 0.8 days | – | – | – | – | – | –
CO[C@H]1C[C@@H]2CC[C@@H](C)[C@@](O)(O2)C(=O)C(=O)N2CCCC[C@H]2C(=O)O[C@H]([C@H](C)C[C@@H]2CC[C@@H](OC(=O)COCC(=O)O)[C@H](OC)C2)CC(=O)[C@H](C)/C=C(\C)[C@@H](O)[C@@H](OC)C(=O)[C@H](C)C[C@H](C)/C=C/C=C/C=C/1C [Example 7, Rapamycin-42-hemi-3'-oxoglutarate] | 0.97 | 12.0 ± 1.0 days | 0.2 µg/mL (≈ 0.194 µM) | 0.1 µg/mL (≈ 0.0971 µM) | 0.4 µg/mL (≈ 0.388 µM) | 0.1 µg/mL (≈ 0.0971 µM) | 0.1 µg/mL (≈ 0.0971 µM) | –
CO[C@H]1C[C@@H]2CC[C@@H](C)[C@@](O)(O2)C(=O)C(=O)N2CCCC[C@H]2C(=O)O[C@H]([C@H](C)C[C@@H]2CC[C@@H](OC(=O)CCCC(=O)O)[C@H](OC)C2)CC(=O)[C@H](C)/C=C(\C)[C@@H](OC(=O)CCCC(=O)O)[C@@H](OC)C(=O)[C@H](C)C[C@H](C)/C=C/C=C/C=C/1C [Example 5, Rapamycin-31,42-hemiglutarate bissodium salt] | – | – | – | – | – | – | – | LAF (ratio) ([1]; bissodium salt): 0.02; Skin Graft (days + SD), mean graft survival time (pinch skin graft; bissodium salt): 8.0 ± 1.7 days; MIC (Candida albicans 3669; strain 3669, bissodium salt): > 0.4 µg/mL; MIC ([2]; ATCC 10231, bissodium salt): 0.4 µg/mL; MIC ([3]; ATCC 38246, bissodium salt): > 0.4 µg/mL; MIC ([4]; ATCC 38247, bissodium salt): > 0.4 µg/mL; MIC ([5]; ATCC 38248, bissodium salt): > 0.4 µg/mL
CO[C@H]1C[C@@H]2CC[C@@H](C)[C@@](O)(O2)C(=O)C(=O)N2CCCC[C@H]2C(=O)O[C@H]([C@H](C)C[C@@H]2CC[C@@H](OC(=O)CCC(=O)OCc3ccccc3)[C@H](OC)C2)CC(=O)[C@H](C)/C=C(\C)[C@@H](O)[C@@H](OC)C(=O)[C@H](C)C[C@H](C)/C=C/C=C/C=C/1C [Example 3, Rapamycin-42-(monobenzylsuccinate)] | 3.27 | 12.7 ± 0.9 days | 0.1 µg/mL (≈ 0.0905 µM) | 0.2 µg/mL (≈ 0.181 µM) | 0.1 µg/mL (≈ 0.0905 µM) | 0.4 µg/mL (≈ 0.362 µM) | 0.1 µg/mL (≈ 0.0905 µM) | –

Reference: patent US5378696A, “Rapamycin esters” (American Home Products Corporation, priority 1993, dated 1995)
